Where “and” joins values, the source holds several entries; their conditions need not be identical. Equal entries are not always repeated. Calls of active or inactive are those of the source.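 Rule for the calls: active = compounds that lower Nile red lipid droplet staining in rat heart muscle cells with dose, giving a fitted IC50; inactive = the rest.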
Tested on: H9c2 cells, Nile red TAG accumulation, high-content imaging
Assay: inhibitors of cytoplasmic TAG accumulation in H9c2, dose response, imaging, H9c2 cells, high-content screening (AID 743170)

IC50	Structure (SMILES)
0.792 µM	CCOCCN1Cc2cccc(C(=O)Nc3cccc(-c4nc5ccccc5[nH]4)c3)c2C1=O
0.829 µM	COc1ccc(CCN2Cc3cccc(C(=O)Nc4cccc(-c5nc6ccccc6[nH]5)c4)c3C2=O)cc1OC
0.762 µM	COCCN1Cc2cccc(C(=O)Nc3cccc(-c4nc5ccc(F)cc5[nH]4)c3)c2C1=O
0.393 µM	COCCN1Cc2cccc(C(=O)Nc3cccc(-c4nc5ccc(C)cc5[nH]4)c3)c2C1=O
1.37 µM	COCCCN1Cc2cccc(C(=O)Nc3cccc(-c4nc5ccccc5[nH]4)c3)c2C1=O
> 50 µM (inactive)	COCCn1cnc2cccc(C(=O)Nc3cccc(-c4nc5ccccc5[nH]4)c3)c2c1=O
1.75 µM	O=C(Nc1cccc(-c2nc3ccccc3[nH]2)c1)c1cccc2c1C(=O)N(CCN1CCOCC1)C2
2.33 µM	COCCN1Cc2cccc(C(=O)Nc3cccc(C(=O)Nc4ccccc4)c3)c2C1=O
0.793 µM	O=C(Nc1cccc(-c2nc3ccccc3[nH]2)c1)c1cccc2c1C(=O)N(CCOc1ccccc1)C2
0.432 µM	COc1ccccc1CCN1Cc2cccc(C(=O)Nc3cccc(-c4nc5ccccc5[nH]4)c3)c2C1=O
0.662 µM	O=C(Nc1cccc(-c2nc3ccccc3[nH]2)c1)c1cccc2c1C(=O)N(CC1CC1)C2
0.76 µM	CCCCN1Cc2cccc(C(=O)Nc3cccc(-c4nc5ccccc5[nH]4)c3)c2C1=O
> 50 µM (inactive)	COCCN1Cc2cccc(C(=O)NCc3cccc(N(C)C)c3)c2C1=O

Further lines, the compound ahead of its results:

Structure (SMILES)	IC50
COCCN1Cc2cccc(C(=O)Nc3cccc(C(=O)Nc4ccccc4OC)c3)c2C1=O	2.49 µM
CCOC(=O)c1cccc(NC(=O)c2cccc3c2C(=O)N(CCOC)C3)c1	> 50 µM (inactive)
COCCN1Cc2cccc(C(=O)Nc3cccc(-c4nc5ccccc5[nH]4)c3)c2C1=O	0.567 µM and 0.569 µM and 0.839 µM
COCCN1Cc2cccc(C(=O)Nc3nc4ccccc4n3C)c2C1=O	> 50 µM (inactive)
COCCN1Cc2cccc(C(=O)Nc3cccc(-c4nc5ccc(Cl)cc5[nH]4)c3)c2C1=O	1.02 µM
CSCCCN1Cc2cccc(C(=O)Nc3cccc(-c4nc5ccccc5[nH]4)c3)c2C1=O	0.526 µM
COCCN1Cc2cccc(C(=O)Nc3cccnc3)c2C1=O	> 50 µM (inactive)
COCCN1Cc2cccc(C(=O)Nc3cccc(-c4nc5ccc(C(F)(F)F)cc5[nH]4)c3)c2C1=O	0.352 µM
COCCN1Cc2cccc(C(=O)Nc3nc4ccccc4[nH]3)c2C1=O	> 50 µM (inactive)
O=C(Nc1cccc(-c2nc3ccccc3[nH]2)c1)c1cccc2c1C(=O)N(CCc1ccccc1)C2	11.2 µM

Source: PubChem BioAssay AID743170 (Sanford-Burnham Center for Chemical Genomics, 2013)
